# How the values were obtained:
# [1] = target: T1, FhCaBP4 (Fasciola hepatica calcium-binding protein 4) (Fasciola hepatica, UniProt I6U578); experiment: microscale thermophoresis (MST), labelled purified protein
# T1 construct: full-length (residues 1–191), C-terminal 6×His-tag (LEHHHHHH)
# [2] = target: Fasciola hepatica calcium-binding protein 4 (FhCaBP4), full-length (residues 1–191) (Fasciola hepatica); experiment: crystal structure; apo form at 1.93 Å, space group P212121, two molecules per asymmetric unit; crystals grown at 20 °C by vapor diffusion with 2 M ammonium sulfate, 0.1 M sodium citrate/citric acid pH 5.5
Compound,Kd [1],stoichiometry N [2]
CN1CCN(CCCN2c3ccccc3Sc3ccc(C(F)(F)F)cc32)CC1 [TFP],699 ± 341 µM,–
CN(C)CCCN1c2ccccc2Sc2ccc(Cl)cc21 [CPZ],289 ± 99.6 µM,–
"Fasciola hepatica calcium-binding protein 4 (FhCaBP4), full-length (residues 1–191) (natural protein)",–,2
NCCCCCCNS(=O)(=O)c1cccc2c(Cl)cccc12 [W7],471 ± 157 µM,–

# Reference: article PMC12347358, “Structural Insights and Calcium-Switching Mechanism of Fasciola hepatica Calcium-Binding Protein FhCaBP4” (International Journal of Molecular Sciences, 2025)
